Patent US9683025B2, “Methods and compositions for treating cancer and inflammatory diseases” (The Regents of the University of Colorado, A Body Corporate, priority 2013, dated 2017)
Entries after “also recorded” stand apart in the source; their conditions may differ. Read-outs that look alike come from different tables or passages of the source. Where a SMILES comes first, the peptide text is derived from it.

How the values were obtained:
[1] = biological target: T1, CtBP-E1A interaction (Homo sapiens, UniProt Q13363); assay: CtBP-E1A interaction inhibition (AlphaScreen / fluorescence polarization competition assay); format: binding; conditions: IC50 value, Table 3; inhibition of CtBP/E1A protein interaction
Protocol: The ability of peptides to inhibit CtBP binding can be monitored by two biochemical assays. An AlphaScreen assay (Perkin-Elmer) was developed that is capable of detecting the CtBP-E1A interaction. Purified GST-E1A and 6xHis-CtBP are incubated with glutathione-conjugated donor beads and nickel-chelated acceptor beads respectively. The interaction between CtBP and E1A brings the donor and acceptor beads in close proximity, which produces a fluorescence signal after laser excitation and can be detected using the EnVision plate reader. A peptide that inhibits this interaction will limit the proximity of the beads and thus a loss in fluorescence signal will occur. In addition to the alphascreen, a fluorescence polarization based assay with a fluorescein-labeled 14mer E1A peptide ([…] (SEQ ID NO: 1)) was also developed. Purified 6xHis-CtBP is incubated with the fluorescein-labeled E1A peptide and changes in the polarization value of the labeled peptide are detected using the EnVision plate reader. A decrease in peptide binding to CtBP can be detected by an […], and used to monitor peptide inhibition. IC50 values of designed peptides can be determined using either of these assays through the addition of increasing amounts in each well and monitoring the degree of inhibition of the CtBP-E1A interaction.
Multiple amino acid sequences may appear at positions outside the conserved peptide motif. The most frequently occurring amino acids in these positions are used to design the peptides that bind CtBP with the highest affinity. The affinity of these new peptides is compared to the original 14mer E1A peptide (SEQ ID NO:1) by comparing the IC50 of these peptides in inhibiting the CtBP/E1A protein interaction in a competition assay. The peptide identified from phage display that competes with the CtBP/E1A protein interaction better than the original 14mer E1A peptide is selected and conjugated to the cell penetrating peptide of the present invention. Also provided in Table 3 are […] for selected peptides.
The ability of peptides to inhibit CtBP binding can be monitored by two biochemical assays. An AlphaScreen assay (Perkin-Elmer) was developed that is capable of detecting the CtBP-E1A interaction. Purified GST-E1A and 6xHis-CtBP are incubated with glutathione-conjugated donor beads and nickel-chelated acceptor beads respectively. The interaction between CtBP and E1A brings the donor and acceptor beads in close proximity, which produces a fluorescence signal after laser excitation and can be detected using the EnVision plate reader. A peptide that inhibits this interaction will limit the proximity of the beads and thus a loss in fluorescence signal will occur. In addition to the alphascreen, a fluorescence polarization based assay with a fluorescein-labeled 14mer E1A peptide ([…] (SEQ ID NO: 1)) was also developed. Purified 6xHis-CtBP is incubated with the fluorescein-labeled E1A peptide and changes in the polarization value of the labeled peptide are detected using the EnVision plate reader. A decrease in peptide binding to CtBP can be detected by an […], and used to monitor peptide inhibition. IC50 values of designed peptides can be determined using either of these assays through the addition of increasing amounts in each well and monitoring the degree of inhibition of the CtBP-E1A interaction. Also provided in Table 4 are IC50 for selected peptides.

[2] = biological target: T2, CtBP (Homo sapiens, UniProt Q13363); assay: Fluorescence polarization competition of unlabeled peptide with FITC-labeled 14mer peptide; format: binding
T2 construct: 6xHis
Protocol: (§1) Additional peptides were tested for in vitro inhibitory potency (Table 5). For Kd determination, FITC-labeled peptide (FITC-peptide) was incubated with varying concentrations of CtBP. The fluorescence polarization values of the FITC-peptide were measured and plotted against CtBP concentration to determine Kd of the FITC-peptide with CtBP using the Prism program. […] For IC50 determination, a fluorescence polarization assay was utilized. […] Increasing concentrations of unlabeled peptide were added to compete with the FITC-labeled peptide, leading to a decreased fluorescence polarization value.

[3] = biological target: T2, CtBP; assay: Fluorescence polarization Kd determination of FITC-peptide with CtBP; format: binding
Protocol: as §1

[4] = biological target: T1, CtBP-E1A interaction; conditions: read-out: IC50 of inhibition of the CtBP/E1A interaction in vitro; Zhang et al. 2000; cited from earlier work
[5] = test system: A375 melanoma cells; assay: Cell viability, A375; format: cell-based; conditions: A375, CtBP overexpressing, FIG. 5
Excerpt: (§2) The Tat peptide alone has no effect on these cells.

[6] = test system: H1299 non-small cell lung carcinoma cells; assay: Cell viability, H1299; format: cell-based, human; conditions: H1299, CtBP overexpressing, FIG. 5
Excerpt: as §2

[7] = test system: 3T3 cells; assay: Cell viability, 3T3; format: cell-based, mouse; conditions: 3T3, does not significantly overexpress CtBP, FIG. 5
Excerpt: as §2

[8] = test system: CtBP target genes BAX, BRCA1, and E-Cadherin; assay: Real-time PCR of endogenous CtBP target genes in H1299 cells; format: cell-based, human; conditions: increasing concentrations, FIG. 6
Protocol: Total RNA was isolated using TRIzol (Invitrogen) as previously described (Zhang et al., 2006). One hundred nanograms of RNA from each sample were subjected to qRT-PCR (ThermoFisher). An 18S probe was used as an internal control. Each sample was examined in triplicate. Relative RNA expression levels were determined by normalizing with internal controls, the values were calculated using the comparative Ct method.
Subsequently, the transcription levels of the endogenous CtBP target genes BAX, BRCA1, and E-Cadherin in Tat-E1A treated H1299 cells were evaluated using real-time PCR.

[9] = test system: IMQ-based psoriasis model; assay: IMQ-based psoriasis model; format: in vivo, mouse; conditions: FIG. 15B, versus PBS
[10] = test system: IMQ-based psoriasis model; assay: IMQ-based psoriasis model; format: in vivo, mouse
Protocol: To elucidate the molecular mechanisms for the Pep1-E1A blocker, H&E and immunostaining for proliferative and inflammatory markers was performed.

CC(C)C[C@H](NC(=O)[C@H](CC(=O)O)NC(=O)[C@H](CC(C)C)NC(=O)[C@@H]1CCCN1C(=O)[C@H](CCC(N)=O)NC(=O)CNC(=O)[C@@H]1CCCN1C(=O)[C@@H](N)CCC(=O)O)C(=O)N[C@@H](CO)C(=O)N[C@@H](CS)C(=O)N[C@@H](CCCCN)C(=O)N[C@@H](CCCNC(=N)N)C(=O)N1CCC[C@H]1C(=O)N[C@@H](CCCNC(=N)N)C(=O)O [Wild-type, reference compound] (H-EPGQPLDLSCKRPR-OH; N-terminus and C-terminus assumed)
IC50 [1]: 7.26 µM
IC50 [2]: 6 µM
Kd [3]: 4.3 µM
IC50 [4]: ~7 µM

GRKKRRQRRRPPQ [Tat, cell penetrating peptide alone, control, reference compound]
cell viability [5]: no effect
cell viability [6]: no effect
cell viability [7]: no effect

GRKKRRQRRRPPQLEEPGQPLDLSCKRPR [Tat-E1A]
cell viability [5]: reduces the viability
cell viability [6]: reduces the viability
cell viability [7]: does not affect
CtBP-mediated suppression of target genes BAX, BRCA1, E-Cadherin (transcription levels) [8]: dose-dependent alleviation; also recorded: relieves the suppression
erythema, thickening and scaling (cumulative score) [9]: Reduction

KETWWETWWTEWSQPKKKRKVLEEPGQPLDLSCKRPR [Pep1-E1A]
psoriasis-like phenotype ([10]; applied on the skin (data not shown)): largely reduced
IMQ-induced epithelial hyperplasia and inflammatory cell infiltration in the stroma (H&E) ([10]; compared to PBS-treated skin, FIG. 7A): decreases
BrdU incorporation (proliferation) ([10]; immunostaining, FIG. 7B): largely reduced; also recorded: decreased
CD45 staining (inflammation) ([10]; immunostaining, FIG. 7B): largely prevented; also recorded: decreased
psoriasis-like phenotype ([10]; injected subcutaneously, FIG. 7): largely reduced
resistance to IMQ-induction of psoriasis ([10]; treated mice versus PBS control): showed resistance
erythema, thickening and scaling (cumulative score) [9]: Reduction
